Assay results as given in paper PMC6070925, “Genome Mining of Non-Conventional Yeasts: Search and Analysis of MAL Clusters and Proteins” (Genes, 2018).

Tests used:
Assay in all cases: glucose release, recombinant E. coli extract
Type in all cases: biochemical
Conditions in all cases: 100 mM substrate, K-phosphate pH 6.5, 0.1 mM EDTA, 30 °C
[1] = target: T1, MAL8 (Ss MAL8) (Scheffersomyces stipitis, UniProt A3LXA2)
T1 construct: gene PCR-cloned from genomic DNA into pURI3-Cter, expressed in E. coli BL21 (DE3), crude cell extract
T1 sequence (A3LXA2 1-572): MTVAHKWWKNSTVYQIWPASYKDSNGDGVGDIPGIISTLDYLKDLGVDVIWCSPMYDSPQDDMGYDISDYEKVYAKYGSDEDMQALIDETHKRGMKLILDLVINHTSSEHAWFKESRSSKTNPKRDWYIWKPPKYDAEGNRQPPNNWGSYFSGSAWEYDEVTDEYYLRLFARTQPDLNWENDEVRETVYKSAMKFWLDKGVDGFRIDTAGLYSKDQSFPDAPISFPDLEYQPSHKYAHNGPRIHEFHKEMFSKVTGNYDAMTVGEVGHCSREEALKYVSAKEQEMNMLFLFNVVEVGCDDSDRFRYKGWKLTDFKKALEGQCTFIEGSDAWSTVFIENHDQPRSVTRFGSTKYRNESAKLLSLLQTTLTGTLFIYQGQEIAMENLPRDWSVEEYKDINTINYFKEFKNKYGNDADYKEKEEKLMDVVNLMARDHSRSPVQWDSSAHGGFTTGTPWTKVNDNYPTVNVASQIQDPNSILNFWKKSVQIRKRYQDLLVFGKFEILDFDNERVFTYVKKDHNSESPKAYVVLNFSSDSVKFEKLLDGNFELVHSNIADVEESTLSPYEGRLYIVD

[2] = target: T2, MAL9 (Ss MAL9) (Scheffersomyces stipitis, UniProt A3GIC0)
T2 construct: gene PCR-cloned from genomic DNA into pURI3-Cter, expressed in E. coli BL21 (DE3), crude cell extract
T2 sequence (A3GIC0 1-573): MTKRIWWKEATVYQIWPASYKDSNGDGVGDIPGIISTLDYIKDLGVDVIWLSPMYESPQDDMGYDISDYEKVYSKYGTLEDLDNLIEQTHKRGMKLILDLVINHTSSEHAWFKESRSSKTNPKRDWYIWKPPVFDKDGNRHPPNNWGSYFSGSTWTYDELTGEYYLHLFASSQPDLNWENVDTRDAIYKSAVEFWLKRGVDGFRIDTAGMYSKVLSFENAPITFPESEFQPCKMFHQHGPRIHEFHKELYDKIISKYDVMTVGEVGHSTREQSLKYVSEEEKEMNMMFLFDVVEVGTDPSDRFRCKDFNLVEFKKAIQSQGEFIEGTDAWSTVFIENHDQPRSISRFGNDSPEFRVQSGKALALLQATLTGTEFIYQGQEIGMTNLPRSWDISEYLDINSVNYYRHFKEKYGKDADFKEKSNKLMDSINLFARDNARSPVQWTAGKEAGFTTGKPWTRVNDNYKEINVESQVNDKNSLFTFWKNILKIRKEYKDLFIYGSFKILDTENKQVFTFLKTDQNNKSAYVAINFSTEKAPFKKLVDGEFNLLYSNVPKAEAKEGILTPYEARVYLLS

[3] = target: T3, MAL7 (Ss MAL7) (Scheffersomyces stipitis, UniProt A3LUP5)
T3 construct: gene PCR-cloned from genomic DNA into pURI3-Cter, expressed in E. coli BL21 (DE3), crude cell extract
T3 sequence (A3LUP5 1-572): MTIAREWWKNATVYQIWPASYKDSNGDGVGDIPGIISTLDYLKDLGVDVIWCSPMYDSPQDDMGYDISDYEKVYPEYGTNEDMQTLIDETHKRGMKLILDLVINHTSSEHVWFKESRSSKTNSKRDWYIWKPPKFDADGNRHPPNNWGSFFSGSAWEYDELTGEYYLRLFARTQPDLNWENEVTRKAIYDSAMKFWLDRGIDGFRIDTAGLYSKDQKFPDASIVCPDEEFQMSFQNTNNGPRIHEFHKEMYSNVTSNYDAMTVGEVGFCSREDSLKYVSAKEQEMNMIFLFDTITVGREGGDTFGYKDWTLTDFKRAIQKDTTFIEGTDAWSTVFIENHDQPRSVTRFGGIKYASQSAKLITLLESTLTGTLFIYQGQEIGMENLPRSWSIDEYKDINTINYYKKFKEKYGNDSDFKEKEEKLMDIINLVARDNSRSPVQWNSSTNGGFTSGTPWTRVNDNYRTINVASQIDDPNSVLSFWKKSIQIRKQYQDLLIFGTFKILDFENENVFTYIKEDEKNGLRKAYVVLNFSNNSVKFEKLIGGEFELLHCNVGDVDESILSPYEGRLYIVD

[4] = target: T4, MAL62 (Sc MAL62) (Saccharomyces cerevisiae, UniProt P07265)
T4 construct: gene from plasmid pY6 cloned into pURI3-Cter, expressed in E. coli BL21 (DE3), crude cell extract

[5] = target: T4, MAL62 (Sc MAL62); remark: listed apart in the source

T4 sequence (P07265 whole entry): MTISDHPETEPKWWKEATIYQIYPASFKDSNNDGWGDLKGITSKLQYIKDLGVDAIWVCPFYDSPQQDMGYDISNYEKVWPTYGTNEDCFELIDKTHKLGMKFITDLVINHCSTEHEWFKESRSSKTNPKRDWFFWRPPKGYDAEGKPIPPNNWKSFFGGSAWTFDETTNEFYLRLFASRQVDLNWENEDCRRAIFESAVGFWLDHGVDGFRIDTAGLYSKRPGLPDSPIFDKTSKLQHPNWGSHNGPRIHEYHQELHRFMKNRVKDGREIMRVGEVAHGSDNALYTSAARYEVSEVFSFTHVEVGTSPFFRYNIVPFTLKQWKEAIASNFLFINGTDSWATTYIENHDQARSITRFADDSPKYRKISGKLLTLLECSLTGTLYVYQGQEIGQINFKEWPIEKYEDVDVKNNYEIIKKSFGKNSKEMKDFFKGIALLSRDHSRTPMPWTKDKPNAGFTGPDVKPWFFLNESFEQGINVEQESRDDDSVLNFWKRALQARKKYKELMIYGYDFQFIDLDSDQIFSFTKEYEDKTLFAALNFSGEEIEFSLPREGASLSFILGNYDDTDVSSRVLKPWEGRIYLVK

| SMILES | specific activity relative to sucrose [1] | specific activity relative to sucrose [2] | specific activity relative to sucrose [3] | specific activity relative to sucrose [4] | specific activity [5] |
| --- | --- | --- | --- | --- | --- |
| OC[C@H]1O[C@H](O[C@H]2[C@H](O)[C@@H](O)C(O)O[C@@H]2CO)[C@H](O)[C@@H](O)[C@@H]1O (some centres unmarked) [maltose] | all these enzymes hydrolyzed not only maltose-like substrates (maltose, sucrose) | all these enzymes hydrolyzed not only maltose-like substrates (maltose, sucrose) | all these enzymes hydrolyzed not only maltose-like substrates (maltose, sucrose) | behaved as a typical maltase using only maltose-like substrates | – |
| OC[C@H]1O[C@@](CO)(O[C@H]2O[C@H](CO)[C@@H](O)[C@H](O)[C@H]2O)[C@@H](O)[C@@H]1O [sucrose] | – | – | – | – | behaved as a typical maltase using only maltose-like substrates |
